Reference: US20170121322A1, “BET-PROTEIN INHIBITING 3,4-DIHYDROPYRIDO[2,3-B]PYRAZINONES WITH META-SUBSTITUTED AROMATIC AMINO- OR ETHER GROUPS” (Bayer Pharma Aktiengesellschaft, priority 2014, published 2017)

Experiments:
CHL-1 cells = assay: Cell proliferation assay CHL-1 (alamarBlue); type: cell-based; conditions: Homo sapiens, melanoma (BRAF wild-type) cells, 96 hours
Experimental: (§1) In accordance with the invention, the ability of the substances to inhibit cell proliferation was determined. Cell viability was determined by means of the alamarBlue® reagent (Invitrogen) in a Victor X3 Multilabel Reader (Perkin Elmer). The excitation wavelength was 530 nm and the emission wavelength […].
The CHL-1 cells (ATCC, CRL-9446) were seeded at a concentration of 1000 cells/well in 100 μl of growth medium (DMEM with glutamine, 10% FCS) on 96-well microtitre plates.
(§2) After overnight incubation at 37° C., the fluorescence values (CI values) were determined. Then the plates were treated with various substance dilutions (1E-5 M, 3E-6 M, 1E-6 M, 3E-7 M, 1E-7 M, 3E-8 M, 1E-8 M) and incubated at 37° C. over 96 hours (MOLM-13, B16F10, CHL-1 cells) or 120 hours (MOLP-8 cells). Subsequently, the fluorescence values were determined (CO values). For the data analysis, the CI values were subtracted from the CO values and the results were compared between cells which had been treated with various dilutions of the substance or only with buffer solution. The IC50 values (substance concentration needed for 50% inhibition of cell proliferation) were calculated therefrom.
(§3) The substances were tested in the cell lines in Table 2, which represent the indications specified by way of example: […]

MOLP-8 cells = assay: Cell proliferation assay MOLP-8 (alamarBlue); type: cell-based; conditions: Homo sapiens, multiple myeloma cells, 120 hours
Experimental: as §1
The MOLP-8 cells (DSMZ, ACC 569) were seeded at a concentration of 4000 cells/well in 100 μl of growth medium (RPMI1640, 20% FCS) on 96-well microtitre plates.
as §2, §3

[1] = target: T1, BRD4 bromo domain 1 [BRD4(1)] (Homo sapiens, UniProt O60885); assay: BRD4(1)/acetylated peptide H4 TR-FRET binding assay; conditions: His6-BRD4(1) (aa 67-152) vs acetylated histone H4 peptide
T1 construct: N-terminally His6-tagged BRD4(1) (amino acids 67-152); made in house; host or cells: E. coli
Procedure, shortened: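 His6-tagged BRD4(1) (aa 67-152, E. coli-expressed; 10 nM) pre-incubated with compound (0.1 nM–20 μM, duplicates) for 10 min at 22 °C in HEPES pH 7.5 buffer, then biotinylated tetra-acetylated H4 peptide with TR-FRET reagents added. After 1 h at 22 °C and ≥3 h at 4 °C, the 665/620 nm ratio was read; IC50 from a 4-parameter fit.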

IC50 [1]: 73 nM
Compound: COc1ccc(S(=O)(=O)C2CC2)cc1Nc1ccc2c(n1)N(C(C)C)[C@H](C)C(=O)N2C [Example 15, (3R)-6-{[5-(Cyclopropylsulphonyl)-2-methoxyphenyl]amino}-4-isopropyl-1,3-dimethyl-3,4-dihydropyrido[2,3-b]pyrazin-2(1H)-one]
IC50 (CHL-1 cells): 52 nM | IC50 (MOLP-8 cells): 118 nM
